Assay [1] relates to Kuramochi cells labeled with mApple-H2B. Kind of assay: IncuCyte Cell Proliferation Assay. The class given is cell-based. An outline of the steps: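 GI50 came from dose-response fits of cell-count fold change between 0 and 72 h, normalized to DMSO controls. Counts were fluorescent nuclei from live-cell images over a 10-point, ½ log series starting at 20 μM.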
A further assay concerns the target T1, CDK2/Cyclin E1 (Homo sapiens, UniProt P24941).
T1 construct: purchased Eurofins 14-475
The experiment in a line: CDK2/Cyclin E1 Caliper Assay (LabChip EZ Reader mobility shift). It counts as biochemical. As to conditions: read-out: Caliper Assay (CDK2/CCNE1): IC50. Here is the method: Inhibition of CDK2/Cyclin E1 activity in the presence of compounds of the present disclosure was evaluated using a Caliper LabChip® EZ Reader mobility shift assay. In the assay, CDK2/Cyclin E1 (Eurofins, 14-475) catalyzed the phosphorylation of a fluorescently tagged peptide 5-FAM-QSPKKG-CONH2 (PerkinElmer, FL Peptide 18) which induced a difference in capillary electrophoresis mobility. The peptide substrate and product were measured, and the conversion ratio was used to determine the inhibition (as % activity and IC50 values) of CDK2/Cyclin E1. Reactions contained 50 mM HEPES pH 7.5, 10 mM MgCl2, 1 mM EDTA, 2 mM DTT, 0.01% Brij35, 0.5 mg/mL BSA, 0.1% DMSO, 2.5 nM CDK2/Cyclin E1, 100 μM ATP, and 1.5 μM fluorescent peptide substrate.
Dose titrations of inhibitors in 100% DMSO were combined with 3.25 nM CDK2/Cyclin E1 and 130 μM of ATP in reaction buffer. The mixtures were incubated for 30 minutes before the addition of fluorescent peptide substrate to initiate the kinase reaction. The final conditions were 2.5 nM CDK2/Cyclin E1, 100 μM ATP, and 1.5 μM fluorescent peptide. The reactions were stopped after 100 minutes with the addition of EDTA (400 mM final EDTA concentration). The stopped reactions were analyzed on a Caliper LabChip® EZ Reader II. The conversion ratios were normalized to yield % activity, plotted against compound concentration, and fit to a four-parameter equation to determine the IC50 for each compound.

The subject of a further assay is Kuramochi cells. The experiment in a line: BrdU Cell Proliferation Assay. The class given is cell-based. As to conditions: read-out: BrdU - KURAMOCHI.1: IC50. An outline of the steps: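 Signal is 450 nm absorbance from a peroxidase anti-BrdU ELISA after a 1-hour BrdU label, background-subtracted and normalized to DMSO-treated wells. Kuramochi cells (2,000 per well) had been exposed to compound for 4 days. Dosing used a 10-point dose response in 3-fold steps.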

On to `C[C@@H](OCC1CCOCC1)[C@@H](COC(F)F)NC(=O)[C@@H]1CN(C(=O)c2cncs2)CC12CN(C(=O)[C@H]1CC1(C)C)C2` [I-441], for which the IC50 in assay [1] (72 h) was above 20000 nM; at CDK2/Cyclin E1, 100 to 1000 nM.

As to `C[C@@H]1C[C@H](C)CN(C(=O)[C@@H](NC(=O)[C@@H]2CN(C(=O)c3cn[nH]c3)CC23CN(C(=O)[C@H]2CC2(C)C)C3)[C@@H](C)OCC2CCCCC2)C1` [I-173A], the IC50 was 500 to 5000 nM in assay [1] (72 h), at most 10 nM on CDK2/Cyclin E1 and at most 500 nM in the assay on Kuramochi cells.

In the case of `CNC(=O)[C@@H](NC(=O)[C@@H]1CN(C(=O)c2cncs2)CC12CN(C(=O)[C@H]1CC1(C)C)C2)c1nnc(C2CCCCC2)o1` [I-429], the IC50 in assay [1] (72 h) was above 20000 nM; at CDK2/Cyclin E1 it was 1000 to 10000 nM; with Kuramochi cells, above 10000 nM.

Turning to `C[C@@H](OCc1ccccc1)[C@H](NC(=O)C1CN(C(=O)c2cnn(Cc3ccccc3)c2)CC12CN(C(=O)C1CC1(C)C)C2)C(=O)NCCCCCNC(=O)OC(C)(C)C` (stereo partly drawn) [I-52], the IC50 in assay [1] (72 h) is 500 to 5000 nM; on CDK2/Cyclin E1, 10 to 100 nM; with Kuramochi cells, 500 to 5000 nM.

As to `C[C@@H](OCC1CCOCC1)[C@H](NC(=O)[C@@H]1CN(C(=O)c2cncs2)CC12CN(C(=O)[C@H]1CC1(C)C)C2)C(=O)N1CCC(c2ccncc2)CC1` [I-442], the IC50 is 5000 to 20000 nM in assay [1] (72 h) and at most 10 nM on CDK2/Cyclin E1.

`CC(=O)N[C@H]1CCCN(C(=O)[C@@H](NC(=O)[C@@H]2CN(C(=O)c3cncs3)CC23CN(C(=O)[C@H]2CC2(C)C)C3)[C@@H](C)OCC2CCCCC2)C1` [I-330]: the IC50 in assay [1] (72 h) was 500 to 5000 nM; on CDK2/Cyclin E1, at most 10 nM; in the assay on Kuramochi cells, 5000 to 10000 nM.

`C[C@@H](OCC1CCC(F)(F)CC1)[C@H](NC(=O)C1CN(C(=O)c2cnn(Cc3ccc(F)cc3)c2)CC12CN(C(=O)C1(C(F)(F)F)CC1)C2)C(=O)N1CCC(F)(F)CC1` (single isomer, unassigned) [I-190B]: the figures for the IC50 (in assay [1] (72 hours); at CDK2/Cyclin E1; with Kuramochi cells) were 5000 to 20000 nM, 100 to 1000 nM and 500 to 5000 nM, respectively.

Consider `C[C@@H](OCC1CCCCC1)[C@H](NC(=O)[C@@H]1CN(C(=O)c2cncs2)CC12CN(C(=O)[C@H]1CC1(C)C)C2)C(=O)N1CCC(F)(F)CC1` [I-192A], for which the results for the IC50 (in assay [1] (72 h); on CDK2/Cyclin E1; in the assay on Kuramochi cells) were at most 500 nM, at most 10 nM and at most 500 nM, respectively.

Regarding `Cc1ccc(CNC(=O)[C@@H]2CN(C(=O)c3cnn(Cc4ccccc4F)c3)CC23CN(C(=O)[C@H]2CC2(C)C)C3)nn1` [I-407], the IC50 is above 20000 nM in assay [1] (72 h) and above 10000 nM on CDK2/Cyclin E1.

As for `COCC1CCCN(C(=O)[C@@H](NC(=O)[C@H]2CN(C(=O)c3cnn(Cc4ccccc4)c3)CC23CN(C(=O)[C@H]2CC2(C)C)C3)[C@@H](C)OCC2CCCCC2)C1` (stereo partly drawn) [I-111], the IC50 in assay [1] (72 h) was 500 to 5000 nM; at CDK2/Cyclin E1, 10 to 100 nM; in the assay on Kuramochi cells, at most 500 nM.

Consider `C[C@@H](OCC1CCC(F)(F)CC1)[C@H](NC(=O)[C@@H]1CN(C(=O)c2cncs2)CC12CN(C(=O)[C@H]1CC1(C)C)C2)C(=O)N1CC2CCC(C1)O2` [I-469], for which the results for the IC50 (in assay [1] (72 h); at CDK2/Cyclin E1; in the assay with Kuramochi cells) were at most 500 nM, at most 10 nM and 500 to 5000 nM, respectively.
